Reference: the supplement of paper PMC7840683
± gives the standard deviation of the averaged measurements.

Tested on: HepaRG
Experiment: LDH release cytotoxicity, % of total lysis control; higher = more cytotoxic
Settings: 48 h
How it was run: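 On collagen I-coated 96-well plates, single-lot HepaRG cells were exposed for 48 h, in duplicate, to eight-point half-log series of test chemicals beginning at 100 µM. The exposure medium was serum-free induction medium with 0.5% DMSO, and total lysis wells got 0.1% Triton X. Resorufin fluorescence from the CytoTox-ONE reaction, read on a Tecan Safire, reported LDH in 50 µL of spent medium. Percent cytotoxicity came from normalization to on-plate vehicle and total lysis controls, averaged over the duplicates.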

| Structure (SMILES) | LDH release cytotoxicity (0.03162 µM) | LDH release cytotoxicity (0.1 µM) | LDH release cytotoxicity (0.3162278 µM) | LDH release cytotoxicity (1 µM) | LDH release cytotoxicity (3.16228 µM) | LDH release cytotoxicity (10 µM) | LDH release cytotoxicity (31.6228 µM) | LDH release cytotoxicity (100 µM) | also measured |
| --- | --- | --- | --- | --- | --- | --- | --- | --- | --- |
| C1N2CN3CN1CN(C2)C3 [Methenamine] | – | – | – | – | – | – | – | – | LDH release cytotoxicity (0.0322552 µM): -1.06 ± 0.69%; LDH release cytotoxicity (0.102 µM): -1.56 ± 0.28%; LDH release cytotoxicity (0.322552 µM): -1.99 ± 0.53%; LDH release cytotoxicity (1.02 µM): -2.63 ± 0.35%; LDH release cytotoxicity (3.2255232 µM): -1.7 ± 0.047%; LDH release cytotoxicity (10.2 µM): -1.59 ± 0.085%; LDH release cytotoxicity (32.2552 µM): -1.01 ± 0.47%; LDH release cytotoxicity (102 µM): 0.286 ± 0.11% |
| COc1nn(CSP(=S)(OC)OC)c(=O)s1 [Methidathion] | 1.04 ± 0.16% | -1.02 ± 0.18% | -0.883 ± 0.25% | -0.575 ± 0.076% | 0.0624 ± 0.29% | 1.08 ± 1.4% | 0.461 ± 1% | 1.33 ± 0.11% | – |
| CN1CC=NC1=S [Methimazole] | -0.734% | -1.69 ± 0.39% | -2.04 ± 0.31% | -2.56 ± 0.11% | -1.77 ± 0.33% | -1.81 ± 0.21% | -1.83 ± 0.38% | -0.15 ± 0.28% | – |
| CNC(=O)ON=C(C)SC [Methomyl] | -0.681 ± 0.27% | -1.04 ± 0.28% | -0.724 ± 0.3% | -0.623 ± 0.49% | -1.04 ± 0.3% | -0.128 ± 0.062% | -1.13 ± 0.27% | -0.0692 ± 0.37% | – |
| CN(Cc1cnc2nc(N)nc(N)c2n1)c1ccc(C(=O)NC(CCC(=O)O)C(=O)O)cc1 (stereo not given) [Methotrexate] | -2.75 ± 1.4% | -1.02 ± 1.2% | 0.713 ± 1% | 0.595 ± 0.46% | 2.21 ± 1.1% | 1.79 ± 0.51% | 3.1 ± 0.33% | 3.39 ± 1.3% | – |
| COc1ccc(C(c2ccc(OC)cc2)C(Cl)(Cl)Cl)cc1 [Methoxychlor] | – | – | – | – | – | – | – | – | LDH release cytotoxicity (0.0314647 µM): -0.145 ± 0.82%; LDH release cytotoxicity (0.0995 µM): -0.434 ± 1.2%; LDH release cytotoxicity (0.3146466 µM): -0.0516 ± 0.38%; LDH release cytotoxicity (0.995 µM): 0.115 ± 0.092%; LDH release cytotoxicity (3.14647 µM): 0.0841 ± 0.19%; LDH release cytotoxicity (9.95 µM): -0.153 ± 0.2%; LDH release cytotoxicity (31.4647 µM): 0.12 ± 0.78%; LDH release cytotoxicity (99.5 µM): 17 ± 0.64% |
| COc1cccc(C(=O)NN(C(=O)c2cc(C)cc(C)c2)C(C)(C)C)c1C [Methoxyfenozide] | -1.25 ± 0.79% | -1.31 ± 0.37% | -0.377 ± 0.4% | -1.71 ± 0.41% | -1.43 ± 0.52% | -0.152 ± 0.72% | 0.244 ± 0.32% | 3.13 ± 0.26% | – |
| COC(=O)c1ccccc1N [Methyl 2-aminobenzoate] | -1.17 ± 0.31% | 0.00334 ± 0.73% | 0.277 ± 0.2% | -0.0267 ± 0.46% | 0.248 ± 0.12% | 0.495 ± 0.94% | 0.0802 ± 0.54% | 1.28 ± 0.41% | – |
| CCCCCCCCCCCC(=O)OC [Methyl dodecanoate] | 0.879 ± 1.4% | -1.07 ± 0.59% | -1.35 ± 0.79% | -1.18 ± 0.72% | -0.971 ± 0.58% | -0.971 ± 1.3% | -1.41 ± 0.49% | 0.025 ± 0.27% | – |
| CN=C=S [Methyl isothiocyanate] | – | -1.72 ± 1% | – | -4.608 ± 0.021% | -3.71 ± 0.42% | -2.9 ± 0.8% | 0.153 ± 0.77% | 49.2 ± 6.8% | LDH release cytotoxicity (0.031623 µM): -2.69 ± 0.49%; LDH release cytotoxicity (0.316228 µM): -3.56 ± 1.4% |
| COS(C)(=O)=O [Methyl methanesulfonate] | -1.45 ± 0.74% | -1.11 ± 0.35% | -1.7 ± 0.1% | -0.993 ± 1.2% | -1.33 ± 0.4% | -1.07 ± 0.89% | -1.15 ± 0.067% | 0.825 ± 0.66% | – |
| CCCCCCCC(=O)OC [Methyl octanoate] | -0.862 ± 0.64% | -0.372 ± 0.27% | -1.13 ± 0.41% | -1.52 ± 0.096% | -0.786 ± 0.032% | -1.1 ± 0.2% | -1.29 ± 0.035% | 0.214 ± 0.17% | – |
| COP(=S)(OC)Oc1ccc([N+](=O)[O-])cc1 [Methyl parathion] | -0.787 ± 0.9% | -0.971 ± 1.1% | 0.295 ± 1.4% | -1.21 ± 0.45% | -0.845 ± 0.36% | 0.053 ± 0.23% | 0.525 ± 0.42% | 1.01 ± 0.04% | – |
| COC(=O)c1ccccc1O [Methyl salicylate] | -1.8 ± 0.66% | -0.746 ± 1.1% | -0.192 ± 2.3% | -1.39 ± 0.17% | -1.33 ± 0.058% | -0.567 ± 0.066% | -1.23 ± 0.11% | 0.0854 ± 0.3% | – |
| C[C@](N)(Cc1ccc(O)c(O)c1)C(=O)O [Methyldopa sesquihydrate] | -0.769 ± 0.75% | -1.62 ± 1.9% | -0.864 ± 0.56% | -1.87 ± 0.72% | -1.57 ± 0.67% | -0.513 ± 0.67% | -2.01 ± 0.42% | -2.91 ± 0.43% | – |
| N#CSCSC#N [Methylene bis(thiocyanate)] | 0.59 ± 0.13% | 0.474 ± 0.14% | -0.978 ± 0.4% | -0.877 ± 0.43% | -0.508 ± 0.021% | 0.525 ± 0.24% | 3.74 ± 0.86% | 66.1 ± 1.7% | – |
| C=CCc1ccc(OC)c(OC)c1 [Methyleugenol] | -1.16 ± 1.3% | -0.0217 ± 1.6% | -0.545 ± 1.1% | -0.949 ± 0.59% | -0.679 ± 0.11% | -0.724 ± 0.15% | -0.435 ± 0.59% | 0.911 ± 0.18% | – |
| COC(=O)c1ccc(O)cc1 [Methylparaben] | -1.06 ± 1.8% | -1.64 ± 0.78% | -1.84 ± 0.091% | -0.442 ± 2.1% | -0.946 ± 0.85% | -0.563 ± 0.36% | -0.515 ± 0.3% | 0.108 ± 1.2% | – |
| CCc1cccc(C)c1N(C(=O)CCl)C(C)COC (stereo not given) [Metolachlor] | -2.35 ± 0.41% | -1.88 ± 0.93% | -2.04 ± 0.75% | -1.88 ± 0.4% | -1.33 ± 0.23% | -1.85 ± 1.5% | -1.51 ± 0.46% | -1.21 ± 0.023% | – |
| CSc1nnc(C(C)(C)C)c(=O)n1N [Metribuzin] | -0.754 ± 0.83% | 0.58 ± 1% | -0.959 ± 0.2% | -1.09 ± 0.56% | -1.24 ± 0.2% | -0.985 ± 0.14% | -0.751 ± 0.37% | 0.317 ± 0.26% | – |
